Test results published in patent US10570457B2, “Methods for predicting drug responsiveness” (Medical Prognosis Institute A/S, priority 2014, dated 2020).

How the values were obtained:
[1] = tested on: colorectal cancer; settings: cited from earlier work
[2] = tested on: colorectal cancer patients; assay: Survival of colon cancer patients treated with 5-FU, grouped by NT5E-predicted sensitivity; assay type: in vivo, human; settings: adjuvant chemotherapy with 5-FU; NT5E expression below vs above population median; 232 colorectal cancer biopsies; p=0.006
Description: A clinical dataset of 232 pre-treatment fresh frozen colorectal cancer surgical biopsies was downloaded from Gene Expression Omnibus under accession number GSE17538. The biopsies were analyzed using the Affymetrix HG-U133-Plus_2 array type. The expression of NT5E was determined by reading the intensity of Affymetrix probeset 203939_at, which is predicted to be more highly expressed in 5-FU-resistant patients. Patients were predicted sensitive to 5-FU if the expression of NT5E was below the population median. Patients were predicted resistant if expression of NT5E was above the population median.

[3] = target: T1, topoisomerase I (Homo sapiens, UniProt P11387); settings: metabolite of irinotecan; cited from earlier work
T1 sequence (P11387 1-765): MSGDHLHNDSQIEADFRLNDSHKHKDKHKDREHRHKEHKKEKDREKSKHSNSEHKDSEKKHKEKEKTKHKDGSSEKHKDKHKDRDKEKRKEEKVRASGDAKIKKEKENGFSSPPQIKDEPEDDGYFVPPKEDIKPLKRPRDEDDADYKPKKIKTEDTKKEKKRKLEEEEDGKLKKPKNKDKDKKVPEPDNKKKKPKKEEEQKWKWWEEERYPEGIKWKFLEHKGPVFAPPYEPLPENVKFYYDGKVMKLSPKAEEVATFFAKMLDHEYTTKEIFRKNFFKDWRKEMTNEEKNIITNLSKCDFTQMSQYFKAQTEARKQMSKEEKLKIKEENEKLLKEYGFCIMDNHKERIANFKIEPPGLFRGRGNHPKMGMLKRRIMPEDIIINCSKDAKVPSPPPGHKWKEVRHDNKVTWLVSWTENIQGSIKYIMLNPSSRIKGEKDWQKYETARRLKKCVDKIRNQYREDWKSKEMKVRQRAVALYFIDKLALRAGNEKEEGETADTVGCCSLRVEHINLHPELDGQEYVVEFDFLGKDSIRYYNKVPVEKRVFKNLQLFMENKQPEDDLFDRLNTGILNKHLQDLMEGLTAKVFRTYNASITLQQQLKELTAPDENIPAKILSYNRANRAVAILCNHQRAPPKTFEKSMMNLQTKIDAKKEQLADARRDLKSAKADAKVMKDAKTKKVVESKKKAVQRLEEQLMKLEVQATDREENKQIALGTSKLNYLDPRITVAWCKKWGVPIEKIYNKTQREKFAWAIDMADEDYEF

Row | Compound | Survival effect of 5-FU treatment ([1]; adjuvant setting of colorectal cancer) | Response rate, 5-FU monotherapy ([1]; metastatic colorectal cancer) | Survival of predicted-sensitive group versus predicted-resistant group [2] | Potency as a topoisomerase inhibitor relative to irinotecan [3]
1 | O=c1[nH]cc(F)c(=O)[nH]1 [5-Fluorouracil (5-FU), 5-fluorouracil] | survival benefit | 10-15% | significantly higher rate of survival | –
2 | CCc1c2c(nc3ccc(O)cc13)-c1cc3c(c(=O)n1C2)COC(=O)[C@]3(O)CC [SN-38] | – | – | – | significantly greater potency
